Experimental data published in the supplement of paper PMC10307832.

Key:
Quizartinib = compound: CC(C)(C)c1cc(NC(=O)Nc2ccc(-c3cn4c(n3)sc3cc(OCCN5CCOCC5)ccc34)cc2)no1 [Quizartinib]; assay: relative viability (nuclei count vs DMSO), 5 days (fraction); higher = more cells survive
Outline: (§1)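 Following overnight incubation at 37 °C, lung cancer cell lines in 1536-well plates were pinned with five library-drug doses (not always all listed) in √10 steps on vehicle-anchored plates. The cells then spent 5 days without medium change before a combined fix, permeabilisation and Hoechst stain, 4× imaging and MetaXpress nuclear counts. Viability is the treated-to-vehicle ratio of nuclei, taken as the median across plates. Only plates with control CV below 25% and at least one doubling passed.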

YM155 = compound: COCC[n+]1c2c(n(Cc3cnccn3)c1C)C(=O)c1ccccc1C2=O [YM155]; assay: as above
Outline: as §1

## NCI-H1648
Quizartinib; 0.003162 µM
  relative viability: 0.756
Quizartinib; 0.01 µM
  relative viability: 0.81
Quizartinib; 0.03162 µM
  relative viability: 0.886
Quizartinib; 0.1 µM
  relative viability: 1.29
YM155; 0.002 µM
  relative viability: 0.748
YM155; 0.006325 µM
  relative viability: 1.11
YM155; 0.02 µM
  relative viability: 0.829
YM155; 0.06325 µM
  relative viability: 0.995
